Article PMC6270562, “Design, Synthesis and Trypanocidal Evaluation of Novel 1,2,4-Triazoles-3-thiones Derived from Natural Piperine” (Molecules, 2013)

How the values were obtained:
[1] = tested on: epimastigote form of Y strain T. cruzi; experiment: Anti-epimastigote effect (direct count of live epimastigotes after 7 days); type: cell-based, Trypanosoma cruzi; conditions: mean of triplicate
Experimental: (§1) Trypanosoma cruzi (Y strain) was obtained from the Fundação Oswaldo Cruz (Rio de Janeiro, Brazil) culture collection, and maintained in the Laboratory of Glycobiology (UFRJ, Rio de Janeiro, Brazil) facilities. Epimastigote forms were maintained by weekly transfers at 28 °C in brain-heart-infusion (BHI) medium (Acumedia, Lansing, MI, USA), supplemented with 10 mg of hemin (Sigma, St. Louis, MO, USA), 20 mg of folic acid L^−1 (Sigma) and 10% heat-inactivated fetal calf serum (FCS) (BHI-FCS medium, Gibco, Grand Island, NY, USA). Tissue culture-derived trypomastigotes were obtained after infection of confluent monolayers of Vero cells (kidney epithelial cells extracted from African green monkeys) with blood trypomastigotes (Y strain) to establish the intracellular cycle and maintained in RPMI 1640 medium containing 10% FCS under an atmosphere of 5% CO2 at 37 °C. The tissue culture-derived trypomastigotes were used to infect Mø in vitro to evaluate the toxic effects of the drugs.
For evaluation of the anti-epimastigote effects, parasites (1 × 10^5 cells per mL) were subcultured in the absence or presence of different concentrations (0.5 to 25 μg.mL^−1) of the drugs 9a–9m, from a 5 mg mL^−1 stock solution in DMSO (Sigma). The parasites were incubated in BHI-FCS medium with or without drugs in a final volume of 1.0 mL in 24-well plates (TPP, Trasadingen, Switzerland), and after 7 days, the toxic effects of the drugs were quantified by the direct count of the live epimastigotes in a Neubauer chamber.
(§2) The 50% inhibitory concentrations (IC50) values shown in the Table 1 represent the mean of experiments carried out in triplicate. The IC50 of all compounds were determined by linear regression analysis using the program IGOR Pro 2.03 (WaveMetrics, Inc, Lake Oswego, OR, USA).

[2] = tested on: amastigotes of T. cruzi; experiment: Anti-amastigote effect in infected peritoneal macrophages; type: cell-based; conditions: Trypanosoma cruzi, Peritoneal macrophage, in Mus musculus; T. cruzi Y strain, intracellular amastigotes in BALB/c peritoneal Mø, 0.5-5.0 µg mL−1; ≥ = maximum concentration allowed by trypan blue exclusion assay
Experimental: as §1
Resident peritoneal Mø from non-infected BALB/c mice were harvested and cultured as described above. Adhered Mø were infected with T. cruzi trypomastigotes at a 10:1 parasite/macrophage ratio and incubated at 37 °C under 5% CO2 for 1 h. […] After, monolayers were washed with PBS at 37 °C, fixed in methanol, and stained with Giemsa (Sigma). The amastigote survival was determined by the counting of 200 cells in triplicate, the percentage of infected cells was analyzed, as well as the number of amastigotes per macrophage and the endocytic index of the infected cells.
as §2

[3] = tested on: peritoneal macrophages (Mø) from Balb/c mice; experiment: Cytotoxicity to macrophages (trypan blue dye exclusion assay); type: cell-based; conditions: murine macrophages, 0.5-5 μg mL−1, 72 h
Experimental: The evaluation of the toxic effects of the compounds was carried out as previously described. Murine peritoneal Mø were seeded (1 × 10^6 cells per well) in 24-well plates with 1 mL of RPMI medium containing 10% FCS. […] The five drugs were assayed in increasing concentrations (0.5, 1.0, 2.5, 5.0 µg mL^−1). Afterwards, the cells were washed with PBS, and RPMI was added to the culture before the addition of vital dye trypan blue in a final concentration of 0.01%. The toxic effects of the drugs were monitored by the count of 200 cells in a Neubauer chamber where plasma membrane permeability was evaluated.

Structure (SMILES) | IC50 ([1]; Trypanosoma cruzi, 168 h) [µM] | melting point [°C] | IC50 [1] [µM] | IC50 [2] [µM] | toxicity on host cells [3]
Cn1c(/C=C/C=C/c2ccc3c(c2)OCO3)n[nH]c1=S [9a, 5-[(1E,3E)-4-(1,3-Benzodioxol-5-yl)buta-1,3-dien-1-yl]-4-methyl-2,4-dihydro-3H-1,2,-triazole-3-thione] | 44.2 ± 7.3 | 220 to 222 | – | – | –
CCn1c(/C=C/C=C/c2ccc3c(c2)OCO3)n[nH]c1=S [9b, 5-[(1E,3E)-4-(1,3-Benzodioxol-5-yl)buta-1,3-dien-1-yl]-4-ethyl-2,4-dihydro-3H-1,2,4-triazole-3-thione] | 50.2 ± 10.8 | 208 to 209 | – | – | –
CC(C)n1c(/C=C/C=C/c2ccc3c(c2)OCO3)n[nH]c1=S [9c, 5-[(1E,3E)-4-(1,3-Benzodioxol-5-yl)buta-1,3-dien-1-yl]-4-isopropyl-2,4-dihydro-3H-1,2,4-triazole-3-thione] | < 30 | 210 to 211 | 27 ± 6.98 | 11.1 ± 1.26 | –
CCCCn1c(/C=C/C=C/c2ccc3c(c2)OCO3)n[nH]c1=S [9d, 5-[(1E,3E)-4-(1,3-Benzodioxol-5-yl)buta-1,3-dien-1-yl]-4-butyl-2,4-dihydro-3H-1,2,4-triazole-3-thione] | – | 173 to 174 | – | ≥ 15.2 | –
CCCCCCn1c(/C=C/C=C/c2ccc3c(c2)OCO3)n[nH]c1=S [9e, 5-[(1E,3E)-4-(1,3-Benzodioxol-5-yl)buta-1,3-dien-1-yl]-4-hexyl-2,4-dihydro-3H-1,2,4-triazole-3-thione] | < 30 | 124 to 125 | 15.4 ± 4.47 | ≥ 14 | –
S=c1[nH]nc(/C=C/C=C/c2ccc3c(c2)OCO3)n1C1CCCCC1 [9f, 5-[(1E,3E)-4-(1,3-Benzodioxol-5-yl)buta-1,3-dien-1-yl]-4-cyclohexyl-2,4-dihydro-3H-1,2,4-triazole-3-thione] | < 30 | 192 to 194 | 18.3 ± 5.21 | 8.87 ± 2.39 | low toxic effects
S=c1[nH]nc(/C=C/C=C/c2ccc3c(c2)OCO3)n1-c1ccccc1 [9g, 5-[(1E,3E)-4-(1,3-Benzodioxol-5-yl)buta-1,3-dien-1-yl]-4-phenyl-2,4-dihydro-3H-1,2,4-triazole-3-thione] | 39 ± 8.88 | 244 to 245 | – | – | –
S=c1[nH]nc(/C=C/C=C/c2ccc3c(c2)OCO3)n1Cc1ccccc1 [9h, 5-[(1E,3E)-4-(1,3-Benzodioxol-5-yl)buta-1,3-dien-1-yl]-4-benzyl-2,4-dihydro-3H-1,2,4-triazole-3-thione] | 39.4 ± 6.88 | 187 to 188 | – | – | –
COc1cc(-n2c(/C=C/C=C/c3ccc4c(c3)OCO4)n[nH]c2=S)cc(OC)c1OC [9i, 5-[(1E,3E)-4-(1,3-Benzodioxol-5-yl)buta-1,3-dien-1-yl]-4-(3,4,5-trimethoxyphenyl)-2,4-dihydro-3H-1,2,4-triazole-3-thione] | 35.3 ± 6.26 | 242 to 243 | – | – | –
CC(C)(C)n1c(/C=C/C=C/c2ccc3c(c2)OCO3)n[nH]c1=S [9j, 5-[(1E,3E)-4-(1,3-Benzodioxol-5-yl)buta-1,3-dien-1-yl]-4-tert-butyl-2,4-dihydro-3H-1,2,4-triazole-3-thione] | 50.8 ± 10.6 | 183 to 184 | – | – | –
CSc1ccc(-n2c(/C=C/C=C/c3ccc4c(c3)OCO4)n[nH]c2=S)cc1 [9k, 5-[(1E,3E)-4-(1,3-Benzodioxol-5-yl)buta-1,3-dien-1-yl]-4-[4-(methylthio)phenyl]-2,4-dihydro-3H-1,2,4-triazole-3-thione] | 40.8 ± 10.5 | 209 to 211 | – | – | –
COc1cccc(-n2c(/C=C/C=C/c3ccc4c(c3)OCO4)n[nH]c2=S)c1 [9l, 5-[(1E,3E)-4-(1,3-Benzodioxol-5-yl)buta-1,3-dien-1-yl]-4-(3-methoxyphenyl)-2,4-dihydro-3H-1,2,4-triazole-3-thione] | 48 ± 6.06 | 248 to 249 | – | – | –
FC(F)(F)c1ccc(-n2c(/C=C/C=C/c3ccc4c(c3)OCO4)n[nH]c2=S)cc1 [9m, 5-[(1E,3E)-4-(1,3-Benzodioxol-5-yl)buta-1,3-dien-1-yl]-4-[4-(trifluoromethyl)phenyl]-2,4-dihydro-3H-1,2,4-triazole-3-thione] | < 30 | 232 to 233 | 18.5 ± 3.95 | 9.59 ± 2.87 | –
O=C(Cn1ccnc1[N+](=O)[O-])NCc1ccccc1 [Benznidazole, benznidazole, reference compound] | 2.2 ± 0.16 | – | – | 2.5 ± 0.21 | –
